Publication PMC8218751, “Visualizing Borrelia burgdorferi Infection Using a Small-Molecule Imaging Probe” (Journal of Clinical Microbiology, 2021)

Legend:
E. coli HtpG = biological target: T1, E. coli HtpG (Escherichia coli, UniProt P0A6Z3); test: biochemical; format: binding
T1 construct: His6 (N); made in house; host or cells: E. coli BL21(DE3)
Method: (§1) Escherichia coli (strain BL21/DE3) genomic DNA was isolated from a lab culture generated from the cloning/expression bacterium (ThermoFisher catalog no. EC0114) by overnight proteinase K digestion at 56°C, high-salt clarification, and ethanol precipitation. […] Human Hsp90-alpha sequences were derived from cDNA generated from total mRNA of the human breast epithelial line, MCF10A. HtpG DNA sequences were PCR cloned from these DNAs using primers designed to allow in-frame cloning with GFP in the isopropyl-β-D-thiogalactopyranoside (IPTG)-inducible bacterial expression vector. […] Fusion protein cloning was done using the ligation-independent cloning procedure via single-nucleotide T4 DNA polymerase treatment of vector and purified PCR products followed by annealing of complementary single-strand ends before transformation into DH5 E. coli. […] Fusion protein synthesis was induced by incubation with 1 mM IPTG or autoinduction ([17]).
(§2) γ-linked ATP Sepharose matrix was generated as described previously by the Haystead lab ([18]). […] The clarified lysate was added to a column containing ATP-bound Sepharose. The column was washed with low-salt buffer (150 mM NaCl, 25 mM HEPES, pH 7.4, 1 mM dithiothreitol [DTT], and 60 mM MgCl2), followed by high-salt buffer (1 M NaCl, 25 mM HEPES, pH 7.4, 1 mM DTT, 0.1% IGEPAL, and 60 mM MgCl2) and once again low-salt buffer to remove unbound protein. Next, the resin with bound proteins (50 μl) was transferred to a 0.2-μm polyvinylidene fluoride filter 96-well plate (Corning) sitting on top of a black flat-bottomed 96-well catch plate (Corning). […] The eluted proteins were measured in a fluorescent plate reader to detect the GFP.
(§3) Subtle single amino acid differences are present within the catalytic clefts of these proteins, especially between residues that contact the nucleotide. […] We therefore reasoned that these differences may be sufficient to design small molecules that can similarly discriminate HtpG of stealth organisms. To test this hypothesis, we utilized a fluorescent-linked enzyme chemoproteomic strategy (FLECS) assay to test known Hsp90 inhibitors ([18]) for binding to various HtpG constructs. First, we cloned and expressed in E. coli recombinant N-terminal GFP-fusion forms of HtpG from B. burgdorferi, E. coli, and Treponema denticola, the oral spirochete, as well as human Hsp90. We then incubated lysate after protein expression with an ATP Sepharose resin to enable binding. In this assay, ATP is tethered to Sepharose beads via its γ-phosphate, enabling the nucleotide to bind to ATP binding proteins such as Hsp90 and HtpG, but is nonhydrolyzable ([24]). After proteins are bound to the ATP Sepharose resin, small molecules with affinity for the ATP binding site will elute the GFP-fusion protein, which can readily be detected and quantified on a plate fluorometer.
(§4) These compounds were selected for testing based on their known binding to human Hsp90 ([25], [26]).

B. burgdorferi = test: In vivo mouse model of B. burgdorferi infection, imaging of tissue sections; parameters: species or system mice; conditions: 25 nmol via tail vein, 3 weeks after infection, 6 h postinjection; ear, tibiotarsal joint, spleen
Method: Ten-micrometer sections of frozen tissues were incubated with WGA (Biotium catalog number 29077) for 1 h in PBS. Tissues were washed and fixed with 3:1 methanol to acetic acid. Slides were incubated with FITC-conjugated B. burgdorferi polyclonal antibody (ThermoFisher, catalog number PA1-73005) for 1 h at room temperature. Noninjected or infected tissues were washed and incubated with 1 μM HS-198 for 30 min as control, and injected tissues were not incubated with HS-198. Slides were washed and mounted with DAPI Prolong Gold. Image studies were performed on a Zeiss Axio Imager upright microscope, using 63× oil objective, and visible light for DIC imaging and excitation at 405, 488, or 633 nm for detection of DAPI, FITC, or HS-198, respectively. Images were analyzed using FIJI software.
Seven C3H/HeN (Charles River Laboratories) female mice, 36 to 42 days old, were anesthetized with isoflurane gas, 1.5 to 2%. Mice were infected with 500,000 logarithmic-stage B. burgdorferi strain N40 spirochetes in <0.5 ml sterile saline by subcutaneous injection in the nape of the neck via 25-gauge needle. The N40 strain was selected for its infection kinetics and inflammatory pathology. The strain was obtained from an archival stock acquired by the Philip lab and was maintained exactly like strain B31 ([21]). […]

B. burgdorferi HtpG = biological target: T2, B. burgdorferi HtpG (Borreliella burgdorferi, UniProt P42555); test: biochemical; format: binding, Borrelia burgdorferi
T2 construct: His6 (N); made in house; host or cells: E. coli BL21(DE3)
Method: as §1, §2, §3, §4

T2 sequence (P42555 whole entry): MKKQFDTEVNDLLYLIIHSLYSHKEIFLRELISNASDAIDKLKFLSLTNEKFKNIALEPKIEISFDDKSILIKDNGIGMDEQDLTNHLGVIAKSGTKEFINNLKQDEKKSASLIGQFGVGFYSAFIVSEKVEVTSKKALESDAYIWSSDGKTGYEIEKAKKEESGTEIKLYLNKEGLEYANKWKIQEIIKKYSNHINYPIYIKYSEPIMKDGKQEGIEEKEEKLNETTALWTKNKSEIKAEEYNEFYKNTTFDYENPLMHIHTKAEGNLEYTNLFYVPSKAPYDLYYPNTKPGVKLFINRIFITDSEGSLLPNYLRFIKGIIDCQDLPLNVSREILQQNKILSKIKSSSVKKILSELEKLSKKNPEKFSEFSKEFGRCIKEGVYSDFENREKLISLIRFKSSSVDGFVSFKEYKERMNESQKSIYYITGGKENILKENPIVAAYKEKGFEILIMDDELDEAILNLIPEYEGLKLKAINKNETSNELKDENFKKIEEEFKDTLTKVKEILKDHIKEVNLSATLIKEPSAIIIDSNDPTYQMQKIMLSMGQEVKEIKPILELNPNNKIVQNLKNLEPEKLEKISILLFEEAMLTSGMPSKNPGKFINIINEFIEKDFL
T1 sequence (P0A6Z3 whole entry): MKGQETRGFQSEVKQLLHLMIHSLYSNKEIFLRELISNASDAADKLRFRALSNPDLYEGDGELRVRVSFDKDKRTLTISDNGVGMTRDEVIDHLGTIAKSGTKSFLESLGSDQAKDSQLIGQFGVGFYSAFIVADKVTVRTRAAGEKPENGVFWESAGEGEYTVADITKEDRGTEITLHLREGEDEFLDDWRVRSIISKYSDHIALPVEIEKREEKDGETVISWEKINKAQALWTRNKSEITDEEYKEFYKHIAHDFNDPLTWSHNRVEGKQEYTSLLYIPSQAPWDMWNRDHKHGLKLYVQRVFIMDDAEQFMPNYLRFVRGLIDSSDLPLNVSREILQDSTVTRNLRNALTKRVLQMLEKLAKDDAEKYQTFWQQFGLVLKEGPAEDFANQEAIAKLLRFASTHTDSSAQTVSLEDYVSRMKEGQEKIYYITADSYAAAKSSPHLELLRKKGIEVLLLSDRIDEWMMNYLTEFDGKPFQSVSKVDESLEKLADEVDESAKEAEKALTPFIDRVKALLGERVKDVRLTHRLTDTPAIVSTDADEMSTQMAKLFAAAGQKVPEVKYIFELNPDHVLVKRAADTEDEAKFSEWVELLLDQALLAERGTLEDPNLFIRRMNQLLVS

Cc1nn(-c2ccc(C(=O)N(C)C)c(NCCCOCCOCCOCCOCCOCCCNCc3ccc(C(=C\C=C4/N(CCCCS(=O)(=O)O)c5ccccc5C4(C)C)/C=C/C4=[N+](CCCCS(=O)(=O)[O-])c5ccccc5C4(C)C)cc3)c2)c2c1C(=O)CC(C)(C)C2 [HS-198]
Kd (E. coli HtpG): 5.8 ± 0.6 µM | Release of E. coli GFP-HtpG from ATP Sepharose (E. coli HtpG; in words): released | Detection of B. burgdorferi in tissue sections of infected mice (B. burgdorferi): localization to sites of B. burgdorferi infection in mice | Kd (B. burgdorferi HtpG): 5.6 ± 3 µM | Elution of B. burgdorferi GFP-HtpG from ATP Sepharose beads (B. burgdorferi HtpG; in words): selectively eluted the bound fusion protein
